Reference: ChEMBL document CHEMBL1152560, “Substituted 2-arylbenzothiazoles as kinase inhibitors: hit-to-lead optimization” (Bioorg Med Chem, 2009)

Columns and labels:
[1] = biological target: Casein kinase I isoform gamma-1 (Homo sapiens) (UniProt Q9HCP0); assay: Residual activity of CK1gamma1 at 1 uM by microplate scintillation counting
[2] = biological target: Receptor tyrosine-protein kinase erbB-2 (Homo sapiens, UniProt P04626); assay: Residual activity of ERBB2 at 1 uM by microplate scintillation counting
Receptor tyrosine-protein kinase erbB-2, sequence (P04626 whole entry): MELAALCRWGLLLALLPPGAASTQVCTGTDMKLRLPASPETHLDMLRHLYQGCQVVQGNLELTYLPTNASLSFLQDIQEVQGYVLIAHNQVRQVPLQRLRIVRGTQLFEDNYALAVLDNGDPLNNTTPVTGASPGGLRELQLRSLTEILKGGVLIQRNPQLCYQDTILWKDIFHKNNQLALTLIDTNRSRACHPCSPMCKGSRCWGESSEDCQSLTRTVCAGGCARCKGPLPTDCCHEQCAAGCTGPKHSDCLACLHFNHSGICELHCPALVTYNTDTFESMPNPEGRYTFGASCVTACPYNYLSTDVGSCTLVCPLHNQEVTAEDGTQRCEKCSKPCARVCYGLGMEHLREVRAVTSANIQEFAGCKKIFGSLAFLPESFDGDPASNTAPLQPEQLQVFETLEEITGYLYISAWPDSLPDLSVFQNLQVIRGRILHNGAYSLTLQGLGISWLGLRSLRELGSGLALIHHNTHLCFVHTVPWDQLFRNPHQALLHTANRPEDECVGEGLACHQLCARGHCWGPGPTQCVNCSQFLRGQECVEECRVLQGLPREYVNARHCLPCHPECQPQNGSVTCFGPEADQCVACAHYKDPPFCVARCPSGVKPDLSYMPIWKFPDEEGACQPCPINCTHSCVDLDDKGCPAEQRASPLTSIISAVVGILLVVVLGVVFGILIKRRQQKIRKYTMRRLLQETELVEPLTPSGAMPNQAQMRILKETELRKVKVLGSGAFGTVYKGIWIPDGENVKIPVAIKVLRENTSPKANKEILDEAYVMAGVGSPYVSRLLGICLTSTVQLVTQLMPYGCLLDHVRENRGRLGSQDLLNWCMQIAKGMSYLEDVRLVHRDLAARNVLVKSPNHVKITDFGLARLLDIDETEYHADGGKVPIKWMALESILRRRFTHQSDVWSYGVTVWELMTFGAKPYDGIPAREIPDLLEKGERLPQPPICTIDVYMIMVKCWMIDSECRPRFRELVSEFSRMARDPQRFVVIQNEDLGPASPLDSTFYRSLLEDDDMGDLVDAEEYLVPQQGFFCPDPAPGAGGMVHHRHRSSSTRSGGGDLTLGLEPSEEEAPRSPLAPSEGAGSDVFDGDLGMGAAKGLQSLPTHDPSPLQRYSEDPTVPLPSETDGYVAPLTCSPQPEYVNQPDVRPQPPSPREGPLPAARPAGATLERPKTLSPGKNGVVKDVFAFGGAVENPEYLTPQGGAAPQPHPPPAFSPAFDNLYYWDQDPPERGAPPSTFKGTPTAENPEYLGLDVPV

[3] = biological target: G protein-coupled receptor kinase 4 (Homo sapiens) (UniProt P32298); assay: Residual activity of GRK4 at 1 uM by microplate scintillation counting
[4] = biological target: Protein kinase C beta type (Homo sapiens) (UniProt P05771); assay: Residual activity of PKCbeta2 at 1 uM by microplate scintillation counting
Protein kinase C beta type (Homo sapiens), sequence (P05771 2-671 limits assumed): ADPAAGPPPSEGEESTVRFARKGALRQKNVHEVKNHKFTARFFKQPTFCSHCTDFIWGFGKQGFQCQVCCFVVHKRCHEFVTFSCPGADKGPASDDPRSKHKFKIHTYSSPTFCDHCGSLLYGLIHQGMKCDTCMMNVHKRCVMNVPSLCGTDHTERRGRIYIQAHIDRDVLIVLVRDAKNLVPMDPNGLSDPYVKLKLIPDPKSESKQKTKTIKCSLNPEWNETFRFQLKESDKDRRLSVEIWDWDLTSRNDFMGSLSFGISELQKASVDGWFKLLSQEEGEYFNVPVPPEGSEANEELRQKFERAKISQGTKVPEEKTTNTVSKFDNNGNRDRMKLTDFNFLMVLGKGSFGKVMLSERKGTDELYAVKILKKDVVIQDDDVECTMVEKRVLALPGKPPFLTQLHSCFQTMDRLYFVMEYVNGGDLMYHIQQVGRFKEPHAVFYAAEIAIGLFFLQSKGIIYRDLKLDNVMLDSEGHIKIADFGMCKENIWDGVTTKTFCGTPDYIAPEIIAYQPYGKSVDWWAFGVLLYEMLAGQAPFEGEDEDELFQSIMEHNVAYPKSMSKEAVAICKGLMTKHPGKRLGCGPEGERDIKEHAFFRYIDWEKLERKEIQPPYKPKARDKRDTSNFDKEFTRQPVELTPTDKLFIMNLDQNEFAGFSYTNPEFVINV

[5] = biological target: Glycogen synthase kinase-3 beta (Homo sapiens) (UniProt P49841); assay: Residual activity of GSK3-beta at 0.1 uM by microplate scintillation counting
Glycogen synthase kinase-3 beta (Homo sapiens), sequence (P49841 whole entry, looked up): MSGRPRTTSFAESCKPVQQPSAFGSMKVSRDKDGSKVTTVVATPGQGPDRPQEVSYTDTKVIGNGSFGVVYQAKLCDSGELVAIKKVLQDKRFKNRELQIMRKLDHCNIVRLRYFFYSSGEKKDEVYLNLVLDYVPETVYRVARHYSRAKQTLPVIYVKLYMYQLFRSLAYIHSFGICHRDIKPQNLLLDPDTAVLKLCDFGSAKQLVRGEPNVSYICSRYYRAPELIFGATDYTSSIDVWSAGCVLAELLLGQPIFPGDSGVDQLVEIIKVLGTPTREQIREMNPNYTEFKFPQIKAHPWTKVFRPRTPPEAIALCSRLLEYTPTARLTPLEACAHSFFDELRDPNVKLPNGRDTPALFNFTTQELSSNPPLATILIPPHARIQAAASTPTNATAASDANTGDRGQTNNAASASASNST

[6] = biological target: Serine/threonine-protein kinase PAK 3 (Homo sapiens) (UniProt O75914); assay: Residual activity of PAK3 at 1 uM by microplate scintillation counting
[7] = biological target: Casein kinase I isoform alpha (Homo sapiens) (UniProt P48729); assay: Residual activity of CK1alpha1 at 10 uM by microplate scintillation counting
[8] = biological target: T1, Ephrin type-B receptor 4 (Homo sapiens) (UniProt P54760); assay: Residual activity of EPHB4 at 10 uM by microplate scintillation counting
T1 sequence (whole entry): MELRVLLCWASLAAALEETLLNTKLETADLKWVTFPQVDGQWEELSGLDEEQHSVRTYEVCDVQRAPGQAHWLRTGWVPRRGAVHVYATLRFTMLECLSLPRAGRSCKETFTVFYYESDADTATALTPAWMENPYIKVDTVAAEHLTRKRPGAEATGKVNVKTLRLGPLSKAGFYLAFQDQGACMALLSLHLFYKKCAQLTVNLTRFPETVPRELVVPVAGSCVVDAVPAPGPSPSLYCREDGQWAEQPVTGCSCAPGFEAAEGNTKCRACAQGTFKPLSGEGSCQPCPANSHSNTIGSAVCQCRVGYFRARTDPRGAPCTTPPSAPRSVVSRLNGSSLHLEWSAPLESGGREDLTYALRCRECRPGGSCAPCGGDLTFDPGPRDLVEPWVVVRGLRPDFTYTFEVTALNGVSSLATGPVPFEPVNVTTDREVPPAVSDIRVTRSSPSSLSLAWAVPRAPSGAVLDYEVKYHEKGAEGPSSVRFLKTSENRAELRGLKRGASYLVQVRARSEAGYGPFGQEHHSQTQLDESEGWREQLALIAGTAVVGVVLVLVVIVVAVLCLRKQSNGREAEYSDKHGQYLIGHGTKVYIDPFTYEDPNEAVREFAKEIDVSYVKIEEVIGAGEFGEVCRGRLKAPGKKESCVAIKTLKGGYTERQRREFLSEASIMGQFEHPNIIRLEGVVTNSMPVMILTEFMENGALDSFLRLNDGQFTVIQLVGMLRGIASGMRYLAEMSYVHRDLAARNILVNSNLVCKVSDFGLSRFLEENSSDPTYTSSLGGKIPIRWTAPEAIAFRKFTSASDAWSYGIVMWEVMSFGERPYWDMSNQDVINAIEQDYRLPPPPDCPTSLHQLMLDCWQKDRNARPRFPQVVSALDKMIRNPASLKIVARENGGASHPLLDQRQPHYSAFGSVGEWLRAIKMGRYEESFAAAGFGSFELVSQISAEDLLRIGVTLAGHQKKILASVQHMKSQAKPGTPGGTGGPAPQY

[9] = biological target: Activated CDC42 kinase 1 (Homo sapiens) (UniProt Q07912); assay: Residual activity of ACK1 at 1 uM by microplate scintillation counting
[10] = biological target: T2, Activin receptor type-1 (Homo sapiens) (UniProt Q04771); assay: Residual activity of ACV-R1 at 1 uM by microplate scintillation counting
T2 sequence (whole entry): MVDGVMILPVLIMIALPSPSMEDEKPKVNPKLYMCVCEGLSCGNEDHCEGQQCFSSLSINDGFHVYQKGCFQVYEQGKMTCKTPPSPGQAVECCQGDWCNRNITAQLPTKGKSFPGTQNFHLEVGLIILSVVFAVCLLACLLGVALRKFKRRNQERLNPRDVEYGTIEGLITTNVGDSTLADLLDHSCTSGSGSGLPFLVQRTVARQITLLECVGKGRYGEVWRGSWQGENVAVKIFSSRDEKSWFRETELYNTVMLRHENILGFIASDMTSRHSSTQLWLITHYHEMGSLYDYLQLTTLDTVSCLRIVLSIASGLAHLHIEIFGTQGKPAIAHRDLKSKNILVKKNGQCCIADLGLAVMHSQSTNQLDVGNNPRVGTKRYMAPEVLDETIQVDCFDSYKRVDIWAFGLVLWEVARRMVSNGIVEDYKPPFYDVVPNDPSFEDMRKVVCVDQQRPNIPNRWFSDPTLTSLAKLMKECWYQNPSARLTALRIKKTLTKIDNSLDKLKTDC

[11] = biological target: Serine/threonine-protein kinase MRCK beta (Homo sapiens) (UniProt Q9Y5S2); assay: Residual activity of CDC42BPB at 10 uM by microplate scintillation counting
Serine/threonine-protein kinase MRCK beta (Homo sapiens), sequence (Q9Y5S2 whole entry): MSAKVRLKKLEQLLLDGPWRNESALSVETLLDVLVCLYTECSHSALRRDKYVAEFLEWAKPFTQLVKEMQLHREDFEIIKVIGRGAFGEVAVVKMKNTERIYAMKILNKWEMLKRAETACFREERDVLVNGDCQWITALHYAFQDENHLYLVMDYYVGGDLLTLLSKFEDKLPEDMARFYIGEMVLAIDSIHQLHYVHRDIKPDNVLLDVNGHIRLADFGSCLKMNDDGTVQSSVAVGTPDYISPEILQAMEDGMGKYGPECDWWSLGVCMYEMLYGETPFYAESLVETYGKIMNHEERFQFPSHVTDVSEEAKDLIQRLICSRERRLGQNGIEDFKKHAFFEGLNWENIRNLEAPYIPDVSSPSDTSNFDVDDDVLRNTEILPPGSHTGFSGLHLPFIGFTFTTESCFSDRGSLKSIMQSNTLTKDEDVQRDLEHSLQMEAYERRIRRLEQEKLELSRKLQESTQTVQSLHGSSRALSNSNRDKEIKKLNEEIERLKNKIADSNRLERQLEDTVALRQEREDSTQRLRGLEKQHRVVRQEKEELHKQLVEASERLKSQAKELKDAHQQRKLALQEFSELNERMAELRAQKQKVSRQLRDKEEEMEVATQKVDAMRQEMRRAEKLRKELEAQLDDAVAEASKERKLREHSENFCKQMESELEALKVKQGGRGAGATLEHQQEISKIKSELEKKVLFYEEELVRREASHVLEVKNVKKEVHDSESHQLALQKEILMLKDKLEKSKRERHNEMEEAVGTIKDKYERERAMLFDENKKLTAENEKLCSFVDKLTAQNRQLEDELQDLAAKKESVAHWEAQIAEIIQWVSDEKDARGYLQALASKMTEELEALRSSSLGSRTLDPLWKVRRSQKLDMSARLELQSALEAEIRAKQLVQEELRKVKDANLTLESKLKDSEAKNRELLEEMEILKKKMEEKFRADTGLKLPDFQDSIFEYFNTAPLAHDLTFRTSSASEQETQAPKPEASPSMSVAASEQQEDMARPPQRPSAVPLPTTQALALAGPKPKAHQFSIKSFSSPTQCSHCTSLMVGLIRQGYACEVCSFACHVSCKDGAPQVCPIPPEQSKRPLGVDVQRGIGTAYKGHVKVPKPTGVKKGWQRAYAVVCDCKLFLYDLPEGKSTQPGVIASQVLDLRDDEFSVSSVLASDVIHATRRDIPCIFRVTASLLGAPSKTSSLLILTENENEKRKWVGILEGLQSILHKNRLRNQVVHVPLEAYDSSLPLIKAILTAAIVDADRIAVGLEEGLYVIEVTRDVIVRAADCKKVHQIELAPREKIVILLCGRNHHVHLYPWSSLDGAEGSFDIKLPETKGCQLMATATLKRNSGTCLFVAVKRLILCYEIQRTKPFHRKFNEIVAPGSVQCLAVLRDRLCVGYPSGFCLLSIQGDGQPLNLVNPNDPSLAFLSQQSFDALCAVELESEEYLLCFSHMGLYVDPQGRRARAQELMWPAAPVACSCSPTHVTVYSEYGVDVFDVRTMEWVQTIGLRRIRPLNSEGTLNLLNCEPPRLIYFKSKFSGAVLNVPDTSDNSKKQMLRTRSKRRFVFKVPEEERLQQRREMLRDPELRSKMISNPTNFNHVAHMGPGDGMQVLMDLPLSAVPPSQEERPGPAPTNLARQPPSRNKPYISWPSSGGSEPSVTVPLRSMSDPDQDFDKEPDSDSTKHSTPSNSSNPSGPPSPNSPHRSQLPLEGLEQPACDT

[12] = biological target: Serine/threonine-protein kinase PAK 2 (Homo sapiens) (UniProt Q13177); assay: Residual activity of PAK2 at 0.1 uM by microplate scintillation counting
Serine/threonine-protein kinase PAK 2 (Homo sapiens), sequence (Q13177 whole entry): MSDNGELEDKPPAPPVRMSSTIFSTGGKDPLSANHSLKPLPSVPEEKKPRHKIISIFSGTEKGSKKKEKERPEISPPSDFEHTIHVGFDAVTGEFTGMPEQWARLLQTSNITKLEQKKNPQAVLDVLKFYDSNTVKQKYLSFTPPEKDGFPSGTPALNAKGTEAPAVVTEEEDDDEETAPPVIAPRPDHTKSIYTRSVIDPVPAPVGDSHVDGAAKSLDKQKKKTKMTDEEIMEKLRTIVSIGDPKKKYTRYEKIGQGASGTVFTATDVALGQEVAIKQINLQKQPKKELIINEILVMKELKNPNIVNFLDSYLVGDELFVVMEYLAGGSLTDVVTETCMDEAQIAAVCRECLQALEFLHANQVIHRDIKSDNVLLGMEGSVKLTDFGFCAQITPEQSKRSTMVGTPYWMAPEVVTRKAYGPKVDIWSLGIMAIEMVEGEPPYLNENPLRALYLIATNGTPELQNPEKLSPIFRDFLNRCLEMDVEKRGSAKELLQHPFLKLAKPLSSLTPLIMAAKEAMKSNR

[13] = biological target: T3, cGMP-dependent protein kinase 1 (Homo sapiens) (UniProt Q13976); assay: Residual activity of PRKG1 at 0.1 uM by microplate scintillation counting
T3 sequence (whole entry): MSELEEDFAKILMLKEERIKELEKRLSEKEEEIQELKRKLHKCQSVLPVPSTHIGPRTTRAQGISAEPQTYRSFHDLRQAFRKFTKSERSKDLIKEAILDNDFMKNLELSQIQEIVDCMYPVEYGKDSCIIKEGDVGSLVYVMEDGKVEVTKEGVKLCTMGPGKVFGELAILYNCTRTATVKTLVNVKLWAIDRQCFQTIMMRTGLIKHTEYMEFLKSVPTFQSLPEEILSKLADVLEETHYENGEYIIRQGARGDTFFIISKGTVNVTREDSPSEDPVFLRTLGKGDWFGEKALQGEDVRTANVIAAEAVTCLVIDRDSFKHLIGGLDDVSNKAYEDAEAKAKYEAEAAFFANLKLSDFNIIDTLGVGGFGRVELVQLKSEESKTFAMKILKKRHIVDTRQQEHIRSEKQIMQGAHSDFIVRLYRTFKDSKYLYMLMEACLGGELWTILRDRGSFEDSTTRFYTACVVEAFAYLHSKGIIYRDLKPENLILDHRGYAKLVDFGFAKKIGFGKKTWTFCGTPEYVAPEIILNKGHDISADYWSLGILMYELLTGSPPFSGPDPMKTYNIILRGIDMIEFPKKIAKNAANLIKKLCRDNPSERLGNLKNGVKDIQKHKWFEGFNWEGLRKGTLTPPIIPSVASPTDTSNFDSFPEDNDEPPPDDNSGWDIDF

Casein kinase I isoform gamma-1 (Homo sapiens), sequence (Q9HCP0 whole entry, looked up, canonical isoform): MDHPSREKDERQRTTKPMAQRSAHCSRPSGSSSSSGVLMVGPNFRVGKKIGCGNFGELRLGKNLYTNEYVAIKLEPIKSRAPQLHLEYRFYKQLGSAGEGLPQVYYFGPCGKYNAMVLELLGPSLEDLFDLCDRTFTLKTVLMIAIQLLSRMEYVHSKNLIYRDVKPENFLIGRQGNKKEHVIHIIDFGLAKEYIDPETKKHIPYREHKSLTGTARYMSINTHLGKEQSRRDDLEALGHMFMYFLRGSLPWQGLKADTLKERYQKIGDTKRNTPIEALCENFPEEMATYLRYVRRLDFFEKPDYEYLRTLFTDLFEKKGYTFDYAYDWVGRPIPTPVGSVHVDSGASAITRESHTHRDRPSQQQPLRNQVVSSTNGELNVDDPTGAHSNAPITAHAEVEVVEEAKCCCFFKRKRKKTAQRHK

Compound: COc1cc2c(Oc3ccc(-c4nc5ccccc5s4)cc3F)ncnc2cc1OCCCN1CCN(C)CC1
- residual activity [1]: 110%
- residual activity [2]: 99%
- residual activity [3]: 106%
- residual activity [4]: 132%
- residual activity [5]: 86%
- residual activity [6]: 95%
- residual activity [7]: 144%
- residual activity [8]: 99%
- residual activity [9]: 90%
- residual activity [10]: 93%
- residual activity [11]: 102%
- residual activity [12]: 97%
- residual activity [13]: 84%

Compound: COc1cc2c(Oc3ccc(-c4nc5ccccc5s4)cc3)ncnc2cc1OCCCN1CCCC1
- residual activity [1]: 97%
- residual activity [2]: 128%
- residual activity [3]: 97%
- residual activity [4]: 111%
- residual activity [5]: 98%
- residual activity [6]: 101%
- residual activity [7]: 139%
- residual activity [8]: 122%
- residual activity [9]: 106%
- residual activity [10]: 85%
- residual activity [11]: 82%
- residual activity [12]: 93%
- residual activity [13]: 90%

Compound: COc1cc2c(Oc3ccc(-c4nc5ccccc5s4)cc3)ncnc2cc1OCCCN1CCN(C)CC1
- residual activity [1]: 112%
- residual activity [2]: 98%
- residual activity [3]: 94%
- residual activity [4]: 104%
- residual activity [5]: 96%
- residual activity [6]: 85%
- residual activity [7]: 155%
- residual activity [8]: 154%
- residual activity [9]: 76%
- residual activity [10]: 89%
- residual activity [11]: 110%
- residual activity [12]: 111%
- residual activity [13]: 97%
